Data from US20200038306A1, “[…] DERIVATIVES AS SELF-TANNING SUBSTANCES” (Merck Patent GmbH, priority 2016, published 2020).

Tests used:
[1] = test system: Normal Human Epidermal Keratinocytes (NHEK) and Normal Human Epidermal Melanocytes, Lightly Pigmented (NHEM-LP) co-culture; assay: Synthesis of melanin in NHEK/NHEM-LP co-culture; type: cell-based; settings: 240 hours (10 days) incubation, melanin extracted with 0.5 N NaOH, OD 405 nm, triple determination
Protocol: Evaluation of the Synthesis of Melanin in a Cell Culture Model Containing Two Cell Types (Co-Culture), Firstly Normal Human Epidermal Keratinocytes (NHEK) and Secondly Normal Human Epidermal Melanocytes, Lightly Pigmented (NHEM-LP)
The two cell types NHEK and NHEM-LP (NHEK:NHEM-LP) are employed in a ratio of 2:1.
The culture medium consists of the media keratinocyte-SFM (2 parts by volume) and medium M254 (1 part by volume).
Keratinocyte-SFM contains 0.25 ng/ml of epidermal growth factor (EGF), 25 μg/ml of pituitary extract (PE) and 25 μg/ml of gentamycin and was purchased from Thermo Fisher Scientific.
M254 contains PMA-free HMGS-2, 5 μg/ml of insulin, 50 U/ml of penicillin, 50 μg/ml of streptomycin and 25 μg/ml of gentamycin and was purchased from Thermo Fisher Scientific.
IBMX denotes the compound 3-isobutyl-1-methylxanthine.
Cell Culture and Treatment
NHEK and NHEM-LP were incubated in the culture medium in microtitre plates (24-well plates) for 24 hours (37° C., 5% CO2). The culture medium was removed and replaced by an assay medium which contained the culture medium and compounds Ib and Id to be tested or alternatively no test substance, the reference L-tyrosine (1 mM), 200 μM of IBMX or the solvent control 0.1% of THF, 0.15% of THF, 0.1% of DMSO, 0.15% of DMSO, 0.17% of DMSO. Compound Ib was added as solution (0.15% in DMSO). Compound Id was added as solution (0.15% in THF). After replacement of the assay medium, the cells were incubated again for 240 hours (10 days). On days 3 and 7, assay medium was again added. All experimental investigations were carried out using a triple determination. After the end of the incubation, the melanin was extracted by cell lysis with 0.5 N NaOH. The optical density (OD) of each sample was measured at 405 nm. The melanin quantity was calculated from melanin standards (standard curve 0.39 to 100 μg/ml of melanin).

[2] = test system: 3D melanized reconstructed human epidermis (RHEs-MEL); assay: Tanning properties in vitro on reconstructed epidermis; type: cell-based; settings: systemic treatment in culture medium for 10 days, positive control IBMX 100 μM
Protocol: Evaluation of the Tanning Properties In Vitro on Reconstructed Epidermis
In this study, the tanning properties of compound Id are investigated in vitro on 3D melanized reconstructed human epidermis (RHEs-MEL). The compound IBMX (3-isobutyl-1-methylxanthine) 100 μM is employed as positive control. Compound Id is employed 20 μM and […]. Untreated reconstructed skin is used as negative control. The in vitro skin is treated systemically with the compounds to be investigated in a culture medium for 10 days and then analysed.

SMILES | stimulation of melanin synthesis ([1]; 20 μM) [%] | stimulation of melanin synthesis ([1]; 45 μM) [%] | tanning properties (reduction of the ITA value and visual colour difference) compared with IBMX ([2]; 20 μM) | tanning properties (reduction of the ITA value and visual colour difference) compared with IBMX [2]
CCCCN1C(=O)NC(=O)C(Cc2ccccc2)C1=O (centres unmarked) [Compound Id, 5-benzyl-1-butylpyrimidine-2,4,6-trione] | 17 | 25 | comparably good properties as IBMX at 100 μM | comparably good properties as IBMX at 100 μM
COc1ccc(CC2C(=O)NC(=O)NC2=O)cc1 [Compound Ib, 5-(4-methoxybenzyl)pyrimidine-2,4,6-trione] |  | 20 |  | 
